Earlier results as cited in patent publication US20050186280A1, “Method for stabilizing a composition having a biologically active epidermal growth factor as an active ingredient” (Daewoong Pharm. Co., Ltd., priority 2000, published 2005).

Conditions: background statement; applied to wounds

Substance: epidermal growth factor [EGF]
- half-life of EGF: about 1 hour
